Assay results taken from PubChem BioAssay (NCI).
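Briefly, cells in 96-well plates were exposed to five compound concentrations for 48 h, and endpoints were estimated by linear interpolation. TGI is the concentration that stops growth completely.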

How the values were obtained:
Experiment in all cases: DTP human tumour cell line panel, 48 h
[1] = system: HCT-15 colon
[2] = system: SF-268 CNS
[3] = system: IGROV1 ovarian
[4] = system: OVCAR-3 ovarian
[5] = system: TK-10 renal
[6] = system: OVCAR-5 ovarian
[7] = system: DU-145 prostate
[8] = system: K-562 leukemia
[9] = system: NCI-H460 lung

SMILES: COc1cc(C2SC(N)=Nc3c2c(C)nn3C(=O)c2ccccc2O)cc(OC)c1OC (centres undefined)
- TGI [1]: > 10 µM
- TGI [2]: > 10 µM
- TGI [3]: 9.01 µM
- TGI [4]: > 10 µM
- TGI [5]: > 10 µM
- TGI [6]: > 10 µM
- TGI [7]: > 10 µM
- TGI [8]: > 10 µM
- TGI [9]: > 10 µM

SMILES: COc1cc(C=O)ccc1Oc1nnnn1-c1ccccc1
- TGI [1]: > 100 µM
- TGI [2]: > 100 µM
- TGI [3]: > 100 µM
- TGI [4]: > 100 µM
- TGI [5]: > 100 µM
- TGI [6]: > 100 µM
- TGI [7]: > 100 µM
- TGI [8]: > 100 µM
- TGI [9]: > 100 µM

SMILES: COc1ccc(/C=C2\CCCC(CN(C)C)C2=O)cc1 (centres undefined)
- TGI [1]: 1.7 µM
- TGI [2]: 11 µM
- TGI [3]: 7.51 µM
- TGI [4]: 4.99 µM
- TGI [5]: 9.45 µM
- TGI [6]: 23.2 µM
- TGI [7]: 30.2 µM
- TGI [8]: 6.79 µM
- TGI [9]: 48.4 µM

SMILES: CC(=O)Nc1ccc(Nc2cc(=O)[nH]c(=O)[nH]2)cc1
- TGI [1]: > 100 µM
- TGI [2]: > 100 µM
- TGI [3]: > 100 µM
- TGI [4]: > 100 µM
- TGI [5]: > 100 µM
- TGI [6]: > 100 µM
- TGI [7]: > 100 µM
- TGI [8]: > 100 µM
- TGI [9]: > 100 µM

SMILES: NC(=O)c1nnc2ccc(F)cc2c1N
- TGI [1]: > 100 µM
- TGI [2]: > 100 µM
- TGI [3]: > 100 µM
- TGI [4]: > 100 µM
- TGI [5]: > 100 µM
- TGI [6]: > 100 µM
- TGI [7]: > 100 µM
- TGI [8]: > 100 µM
- TGI [9]: > 100 µM

SMILES: Cc1c2c(c(C)n1-c1ccccc1)C(=O)N(CCCCN1CCN(c3ccccc3)CC1)C2=O
- TGI [1]: 54.8 µM
- TGI [2]: > 100 µM
- TGI [3]: > 100 µM
- TGI [4]: 88.5 µM
- TGI [5]: > 100 µM
- TGI [6]: > 100 µM
- TGI [7]: > 100 µM
- TGI [8]: 37.6 µM
- TGI [9]: 47.4 µM

SMILES: CC(C)(C)OC(=O)NCCCCC(N)C(N)=O (centres undefined)
- TGI [1]: > 100 µM
- TGI [2]: > 100 µM
- TGI [3]: > 100 µM
- TGI [4]: > 100 µM
- TGI [5]: > 100 µM
- TGI [6]: > 100 µM
- TGI [7]: > 100 µM
- TGI [8]: > 100 µM
- TGI [9]: > 100 µM

SMILES: CCOC(=O)c1ccc(Nc2cnc3cc(C(F)(F)F)ccc3n2)cc1
- TGI [1]: > 100 µM
- TGI [2]: > 100 µM
- TGI [3]: > 100 µM
- TGI [4]: > 100 µM
- TGI [5]: > 100 µM
- TGI [6]: > 100 µM
- TGI [7]: > 100 µM
- TGI [8]: > 100 µM
- TGI [9]: > 100 µM

SMILES: CC(C)(C)c1cc(CC2C(=O)c3ccccc3C2=O)cc(C(C)(C)C)c1O
- TGI [1]: 14.8 µM
- TGI [2]: 17.1 µM
- TGI [3]: 26.4 µM
- TGI [4]: 9.53 µM
- TGI [5]: 23.7 µM
- TGI [6]: 57.6 µM
- TGI [7]: 14.7 µM
- TGI [8]: 13.1 µM
- TGI [9]: 43.3 µM

SMILES: CCCCCC(C)(C)CCC(=O)OC1OC(COC2OC(COC3OC(CO)C(O)C(O)C3O)C(O)C(O)C2O)C(O)C(O)C1O (centres undefined)
- TGI [1]: > 100 µM
- TGI [2]: > 100 µM
- TGI [3]: > 100 µM
- TGI [4]: > 100 µM
- TGI [5]: > 100 µM
- TGI [6]: > 100 µM
- TGI [7]: > 100 µM
- TGI [8]: > 100 µM
- TGI [9]: > 100 µM

SMILES: Cc1ccc(-c2nc(C)c(C(=O)Nc3ccc(Cl)cc3)s2)cc1
- TGI [1]: > 100 µM
- TGI [2]: 91.8 µM
- TGI [3]: 82.4 µM
- TGI [4]: 98.6 µM
- TGI [5]: 38.9 µM
- TGI [6]: > 100 µM
- TGI [7]: > 100 µM
- TGI [8]: > 100 µM
- TGI [9]: > 100 µM

SMILES: CCOC(=O)c1c2c3c(cccc3[nH]c1=O)Sc1ncccc1-2
- TGI [1]: > 100 µM
- TGI [2]: > 100 µM
- TGI [3]: 61 µM
- TGI [4]: > 100 µM
- TGI [5]: > 100 µM
- TGI [6]: 96.6 µM
- TGI [7]: > 100 µM
- TGI [8]: > 100 µM
- TGI [9]: > 100 µM

SMILES: NNC(=O)CSc1nc2ccc(I)cc2c(=O)n1Cc1ccccc1
- TGI [1]: > 100 µM
- TGI [2]: 41.3 µM
- TGI [3]: 69.3 µM
- TGI [4]: 54.9 µM
- TGI [5]: 38.7 µM
- TGI [6]: 40.9 µM
- TGI [7]: > 100 µM
- TGI [8]: 88 µM
- TGI [9]: 44.7 µM

SMILES: Nc1cc2c3c(c1)Oc1cc(N)cc4c1C3c1c(cc(N)cc1O4)O2
- TGI [1]: > 31.6 µM
- TGI [2]: 25 µM
- TGI [3]: > 44.9 µM
- TGI [4]: 51.6 µM
- TGI [5]: > 100 µM
- TGI [6]: > 100 µM
- TGI [7]: 46.7 µM
- TGI [8]: > 100 µM
- TGI [9]: > 100 µM

SMILES: Cc1c(NC(=S)NN)c(=O)n(-c2ccccc2)n1C
- TGI [1]: > 100 µM
- TGI [2]: > 100 µM
- TGI [3]: > 100 µM
- TGI [4]: > 100 µM
- TGI [5]: > 100 µM
- TGI [6]: > 100 µM
- TGI [7]: > 100 µM
- TGI [8]: > 100 µM
- TGI [9]: > 100 µM

SMILES: COc1cc(C2SCC(=O)N2c2cc(Cl)c(Cl)cc2Cl)cc(OC)c1OC (centres undefined)
- TGI [1]: > 100 µM
- TGI [2]: > 100 µM
- TGI [3]: > 100 µM
- TGI [4]: > 100 µM
- TGI [5]: > 100 µM
- TGI [6]: > 100 µM
- TGI [7]: > 100 µM
- TGI [8]: > 100 µM
- TGI [9]: > 100 µM
